Values quoted from earlier work in US6596884B2, “Synthesis of hydrogen peroxide” (University of Pittsburgh, priority 1998, dated 2003).

Conditions: obtained by extrapolation of the data from Santacesaria et al., Ind. Eng. Chem. Res., 1994, 33, 277

## CCc1ccc2c(c1)C(=O)c1ccccc1C2=O [Entry 2-EtAQ]
  kc: 0.47^(3) cm^3/(g s)
